Test results reported in the supplement of paper PMC11061612.

What was measured:
Test in all cases: combination Emax (second highest fraction inhibited in the dose matrix, 72 h); higher = more inhibition; extreme values may be limits of the assay
[1] = system: KYSE-270 (Esophageal Squamous Cell Carcinoma)
Procedure, shortened: (§1)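 Cell lines in DMEM/F12 or RPMI with 10% FBS were plated in 1536-well plates, held 24 hours at 37°C, 5% CO2, then given two-drug dose matrices for 72 hours (DMSO typically 0.2%). Viability was read by CellTiter-Glo 2.0 luminescence and scaled as inhibition from 0 (vehicle wells) to 1 (blank wells). Combination Emax is the second-highest inhibition in the matrix; Bliss excess is observed combination effect minus expected EA + EB − EA·EB, EA and EB being single-agent effects.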

[2] = system: HCC1419 (Breast Carcinoma)
Procedure, shortened: as §1

[3] = system: NCI-H929 (Plasma Cell Myeloma)
Procedure, shortened: as §1

[4] = system: 8505C (Thyroid Gland Carcinoma)
Procedure, shortened: as §1

[5] = system: SK-GT-4 (Esophageal Adenocarcinoma)
Procedure, shortened: as §1

[6] = system: NCCIT (Other Solid Carcinomas)
Procedure, shortened: as §1

[7] = system: KMS-12-BM (Plasma Cell Myeloma)
Procedure, shortened: as §1

RD (Rhabdomyosarcoma) = system: RD (Rhabdomyosarcoma)
Procedure, shortened: as §1

SJSA-1 (Osteosarcoma) = system: SJSA-1 (Osteosarcoma)
Procedure, shortened: as §1

[8] = system: CHSA8926 (Chondrosarcoma)
Procedure, shortened: as §1

G-361 (Melanoma) = system: G-361 (Melanoma)
Procedure, shortened: as §1

[9] = system: NCI-H3122 (Lung Adenocarcinoma)
Procedure, shortened: as §1

[10] = system: MOG-G-CCM (Low Grade Glioma)
Procedure, shortened: as §1

M059J (Glioblastoma) = system: M059J (Glioblastoma)
Procedure, shortened: as §1

[11] = system: NCI-H520 (Squamous Cell Lung Carcinoma)
Procedure, shortened: as §1

[12] = system: JHH-4 (Hepatocellular Carcinoma)
Procedure, shortened: as §1

[13] = system: CW-2 (Colorectal Carcinoma)
Procedure, shortened: as §1

[14] = system: SU-DHL-5 (B-Cell Non-Hodgkin's Lymphoma)
Procedure, shortened: as §1

[15] = system: T-T (Esophageal Squamous Cell Carcinoma)
Procedure, shortened: as §1

[16] = system: KU812 (Chronic Myelogenous Leukemia)
Procedure, shortened: as §1

Structure (SMILES)	combination Emax [1]	combination Emax [2]	combination Emax [3]	combination Emax [4]	combination Emax [5]	combination Emax [6]	combination Emax [7]	combination Emax (RD (Rhabdomyosarcoma))	combination Emax (SJSA-1 (Osteosarcoma))	combination Emax [8]	combination Emax (G-361 (Melanoma))	combination Emax [9]	combination Emax [10]	combination Emax (M059J (Glioblastoma))	combination Emax [11]	combination Emax [12]	combination Emax [13]	combination Emax [14]	combination Emax [15]	combination Emax [16]
CN(CCO)CC[C@H](CSc1ccccc1)Nc1ccc(S(=O)(=O)NC(=O)c2ccc(N3CCC([C@@H](O)c4ccccc4-c4ccc(Cl)cc4)CC3)cc2)cc1S(=O)(=O)C(F)(F)F [AZD4320] + Cn1cnc2c(F)c(Nc3ccc(Br)cc3Cl)c(C(=O)NOCCO)cc21 [Selumetinib] (first compound max 1 µM, 7x7, partner max 3 µM)	0.389	0.336	0.631	0.475	0.624	0.224	1	0.904	0.429	0.643	0.849	0.538	0.576	0.3	0.203	0.326	0.216	0.962	0.325	0.966
COc1nnc2ccc(N3CCC(c4ccc(OCCN5CCN(C)C(=O)[C@H]5C)cc4)CC3)nn12 [AZD5153] + C=CCn1c(=O)c2cnc(Nc3ccc(N4CCN(C)CC4)cc3)nc2n1-c1cccc(C(C)(C)O)n1 [AZD1775] (first compound max 1 µM, partner max 1 µM)	0.656	0.346	0.908	0.574	0.6	0.939	1	0.774	0.589	0.735	0.734	0.707	0.615	0.668	0.811	0.56	0.605	1	0.615	0.931
COc1nnc2ccc(N3CCC(c4ccc(OCCN5CCN(C)C(=O)[C@H]5C)cc4)CC3)nn12 [AZD5153] + CC1(C)CCC(CN2CCN(c3ccc(C(=O)NS(=O)(=O)c4ccc(NCC5CCOCC5)c([N+](=O)[O-])c4)c(Oc4cnc5[nH]ccc5c4)c3)CC2)=C(c2ccc(Cl)cc2)C1 [Venetoclax] (first compound max 1 µM, 7x7, partner max 1 µM)	0.547	0.389	0.951	0.419	0.484	0.807	1	0.533	0.546	0.509	0.617	0.633	0.54	0.756	0.569	0.392	0.513	0.978	0.55	0.924
COc1nnc2ccc(N3CCC(c4ccc(OCCN5CCN(C)C(=O)[C@H]5C)cc4)CC3)nn12 [AZD5153] + CCN(CCO)CCCOc1ccc2c(Nc3cc(CC(=O)Nc4cccc(F)c4)[nH]n3)ncnc2c1 [AZD2811] (first compound max 1 µM, 7x7, partner max 1 µM)	0.439	0.355	0.939	0.5	0.538	0.832	0.998	0.605	0.64	0.537	0.649	0.668	0.571	0.751	0.691	0.367	0.542	0.999	0.582	0.935
COc1nnc2ccc(N3CCC(c4ccc(OCCN5CCN(C)C(=O)[C@H]5C)cc4)CC3)nn12 [AZD5153] + C[C@@H]1COCCN1C2=NC(=NC(=C2)C3(CC3)[S@](=N)(=O)C)C4=C5C=CNC5=NC=C4 [AZD6738] (first compound max 1 µM, 7x7, partner max 10 µM)	0.57	0.295	0.991	0.807	0.663	0.901	1	0.748	0.634	0.632	0.872	0.757	0.702	0.74	0.869	0.714	0.722	1	0.587	0.963
COc1nnc2ccc(N3CCC(c4ccc(OCCN5CCN(C)C(=O)[C@H]5C)cc4)CC3)nn12 [AZD5153] + Cc1c2c(nn1C)CSCc1cc(n(C)n1)CSc1cc(c3ccccc3c1)OCCCc1c(C(=O)O)n(C)c3c-2c(Cl)ccc13 [AZD5991] (first compound max 1 µM, 7x7, partner max 1 µM)	0.942	0.567	1	0.475	0.53	0.998	1	0.808	0.553	0.651	0.997	0.691	0.652	0.864	0.744	0.379	0.527	1	0.958	0.987
